The values that follow come from US20250032425A1, “FIRST IN CLASS USE OF ESTROGEN RECEPTOR BETA AGONISTS IN TREATING ANGELMAN SYNDROME AND RELEVANT AUTISM SPECTRUM DISORDERS” (BROWN UNIVERSITY, priority 2023, published 2025).

Entries after “also recorded” stand apart in the source; their conditions may differ.

For one assay, the system named is UBE3A-deficient iOPCs. The assay can be described thus: Ki67 (and PCNA) immunoblotting in UBE3A-knockdown iOPCs: compound screen and rescue of proliferation. In kind it is cell-based, human. To be noted: for EC50: Homo sapiens, iOPCs treated with siUBE3A, Ki67 immunoblotting normalized to siNC plus vehicle, read-out: EC50 for rescue of Ki67 expression; for Ki67 expression (FIG. 19G) / PCNA expression (FIG. 19G): siUBE3A cells, normalized to GAPDH. The method, then:
Given the scarcity of knowledge regarding UBE3A function in oligodendrocyte biology, a comprehensive exploration of various cellular functions was performed, leveraging the high-throughput capabilities of the iPSC-based methodology (e.g., as described herein). We selected over 45 compounds with known targeted cellular actions (Table 1). These were chosen based on their documented effects on UBE3A, their ability to promote oligodendrocyte development and myelination, or their protective 10 roles in neural tissue. UBE3A expression was modulated using siRNA, achieving a controlled reduction that decreased OPC proliferation by approximately 50%, as evidenced by Ki67 protein levels.
iPSC Culturing and Generation of Induced Human Brain Cells Including Oligodendroglia, Neurons (IN), Astrocytes (iAs) and Microglia (iMG) The generation of iPSC-derived human oligodendrocyte precursor cells (iOPCs) was carried out according to a previously published protocol by Vulakh and Yang et al., 2023 (Characterizing the Neuron-Glial Interactions by the Co-cultures of Human iPSC-Derived Oligodendroglia and Neurons. Methods Mol. Biol. 2683), which itself was a modification of an earlier protocol by Assetta et al., 2020 (Generation of Human Neurons and Oligodendrocytes from Pluripotent Stem Cells for Modeling Neuron-Oligodendrocyte Interactions. J Vis Exp.). The process began with the control iPSCs, which is a well-characterized control reference line acquired from the NIH-funded iPSC Neurodegenerative Disease Initiative (INDI, (Ramos, D. M., Skarnes, W. C., Singleton, A. B., Cookson, M. R., and Ward, M. E. (2021). Tackling neurodegenerative diseases with genomic engineering: A new stem cell initiative from the NIH. Neuron 109, 1080-1083. 10.1016/j.neuron.2021.03.022)), distributed by the Jackson Laboratory. These iPSCs were maintained in mTeSR plus medium (StemCell Technologies, #05825) and expanded in Stem Flex medium (Fisher Scientific. #A3349401) for the induction of neural progenitor cells (INPC). The iNPCs were derived by treating iPSCs with a commercial SMAD inhibitor medium (StemCell Technologies, #08582) for 7 days (Week 1). Subsequently, NPCs were further induced to become OPCs by a 7-day incubation (Week 2) with a chemically-defined OPC medium: DMEM/F12 medium (Thermo Fisher, #11320033) supplemented by 10 ng/ml PDGF-AA (R&D Systems, #221-AA-025), 1 μM SAG (Tocris, #4366), […] N-Acetyl-Cysteine (Millipore Sigma, #A9165-5G), 20 ng/mL bFGF (R&D Systems, #233-FB-025/CF), 1% N2 supplement (Thermo Fisher, #17502048), and 1% B27 supplement (Thermo Fisher, #17504044). […] The additional incubation with OL medium for 7-14 days (Week 4-5) yielded mature, myelinating OLs.
The siRNAs targeting UBE3A (Thermo Fisher, #4390815 and #4390816), estrogen receptors (Thermo Scientific #145909 for ESRβ, #145539 for ESRα, and #4390824 for GPER), and negative control (Thermo Scientific, #AM4615) were obtained commercially. The 10-20 nM final concentration was used with Lipofectamine RNAiMAX transfection reagent (Thermo Scientific #13778075) and incubated for at least 48 hours before the treatments of therapeutic compounds or other reagents.
Cells were collected by fast spin down in centrifuge tubes before lysis in RIPA buffer (ThermoFisher, #89901) supplemented with proteinase inhibitor cocktail (Sigma-Aldrich, #5892791001) on ice. Lysates were then spun down at 15000 rpm for 10 mins, the supernatant was collected and mixed with 4× Laemmle sample buffer (Bio-Rad, #1610747) and cooked 10 mins before SDS-PAGE and transferred with Bio-Rad fast transfer system, the membranes were blocked for one hour in 1× Tris Buffered Saline (TBS) with 1% Casein buffer (Bio-Rad, #1610782) and incubated with primary antibodies overnight at 4 degrees. […]
(In general: In western blotting, separated proteins are transferred to a membrane and probed.)

For assay [1], the system named is iOPCs expressing Cas9 and a sgRNA targeting UBE3A. In words: EdU incorporation in iOPCs with CRISPR/Cas9 UBE3A depletion (Lenti-sgUBE3A #1-3). To be noted: 10 μM; any of the sgRNAs. It is filed as cell-based, human. The method, then: The sgRNAs targeting UBE3A, and negative control were obtained from Applied Biological Materials Inc. Targeting sgRNA sequences against UBE3A are: sgRNA1, […]; sgRNA2, […]; sgRNA3, […]. These sgRNAs were integrated into the backbone of the negative control pLenti-U6-sgRNA-SFFV-Cas9-2A-Puro. All constructs were packaged into lentiviruses and concentrated by Lenti-X Concentrator (Takara Bio #631231). In each experiment, 5-10 μl of concentrated virus was administered into ˜70% confluent iOPCs cultures in 6-well plates. One day post-lentiviral transduction, iOPC cultures were treated with approximately 5 μg/ml Puromycin to isolate those iOPCs which are expressing Cas9/sgRNAs. Following a day of selection, the iOPCs were then seeded on gelatin-coated coverslips placed in 24-well plates at a density of 100,000 cells per well. After another day allowed for cell stabilization, treatment with either the vehicle control (DMSO), AC-186, DPN, or LY500307 commenced at a standard concentration of 10 μM. A final 24-hour period after this treatment saw the cells exposed to […] for three hours, preparing them for subsequent immunofluorescence staining.
The EdU labeling kit from ThermoFisher Scientific (#C10637) was used to trace cell proliferation by incubating iOPCs with 2 μM EdU for three hours before fixation. Following EdU incorporation, cells were fixed in 4% paraformaldehyde, blocked with normal serum, and stained with primary antibodies, Rabbit anti-Ki67 and Mouse anti-UBE3A. These steps were conducted according to the manual of the labeling kit and also detailed immunofluorescence staining protocols described below, to ensure specific detection of the proliferation marker Ki67 and the ubiquitin-protein ligase UBE3A in the cells for subsequent imaging analysis.

The test system of assay [2] is rat OPCs with normal UBE3A levels. The assay can be described thus: Proliferation of rat OPCs with normal UBE3A levels. In kind it is cell-based.

By EC50 is commonly meant the concentration needed to bring the measured effect to its halfway point.

For the compound `N#CC(Cc1ccc(O)cc1)c1ccc(O)cc1` (stereo not drawn) [DPN, diarylpropionitrile, reference compound], in the assay on UBE3A-deficient iOPCs (ERβ activators of different structural classes), the “impact of UBE3A loss on OPC proliferation (FIG. 18F, 19G)” value was “similarly mitigated the impact of UBE3A loss on OPC proliferation”. Besides, the EC50 with UBE3A-deficient iOPCs (24 hours) is around 19 nM. Also, in the assay with UBE3A-deficient iOPCs (10 μM, 24 hours), the “Ki67 expression (FIG. 19G)” value is given as “increased expression” and the “PCNA expression (FIG. 19G)” value is “increased expression”. Also, in assay [1], the “number of EdU+ cells” value is recorded as “increased the number of EdU+ cells”. In addition, in assay [2], the “effect on OPCs with normal UBE3A levels” value is given as “neither AC-186 nor DPN affected”.
On to `Oc1ccc(C2(c3ccccc3F)CCC(F)(F)CC2)cc1` [AC-186], for which the “restoration of Ki67 expression in compound screen” value in the assay with UBE3A-deficient iOPCs (10 μM, 24 hours, Ki67 immunoblotting normalized to siNC=1.0) is on record as “restored; also recorded: effectively normalized proliferation levels; also recorded: Statistically significant; also recorded: capable of restoring Ki67 expression”. Further, the EC50 in the assay on UBE3A-deficient iOPCs (24 hours) was around 16 nM. Moreover, in the assay on UBE3A-deficient iOPCs (10 μM, 24 hours), the “Ki67 expression (FIG. 19G)” value was “increased expression” and the “PCNA expression (FIG. 19G)” value is listed as “increased expression”. Further, the “number of EdU+ cells” value in assay [1] was “increased the number of EdU+ cells”. Also, the “effect on OPCs with normal UBE3A levels” value in assay [2] is listed as “neither AC-186 nor DPN affected”.
